# In patent US20240139198A1, “METHOD AND COMBINATION FOR TREATING TUMORS” (CURON BIOPHARMACEUTICAL (SHANGHAI) CO., LIMITED, priority 2021, published 2024):
# Legend:
# A20 cells = assay: A20 mouse B-cell lymphoma animal model, tumor growth in Balb/c mice; assay type: in vivo
# Procedure: The animal experiment was carried out in accordance with the requirements of AAALAC, and was approved by Bikai Animal Experiment Center IACUC to conduct. 6-8 week-old Balb/c mice (16-20 grams) were purchased from Beijing Weitong Lihua Experimental Animal Technology Co., Ltd. Each mouse was subcutaneously inoculated with 500,000 A20 cells, and inoculated on the right rear side of the back of the mouse. When the volume of the tumor grew to about 60mm^3, the mice were randomly assigned to the control group and the experimental group.
# Mice were euthanized whnmorbidity or weightloss>20% was observed. Tumors were measured with a caliper twice weekly until final sacrifice. When a tumor size reached approximately 2000 mm^3 or there were animal health issues (20% area of a tumor ulcerated), the animals would be euthanized an date of death recorded. Solid tumor volumes were estimated from two dimensional tumor measurements and calculated according to the following equation:
# Tumor volume (mm 3)=[length(mm)×width2 (mm 2)]/2
# The percent median regression for a group at a given day was then obtained by taking the median of the individual percent regression calculated for each animal of the group at this day. The day of calculation was determined on the day when ΔT/ΔC (i.e., the ratio of medians of tumor volume changes from baseline between the treated and control groups)was calculated, except when median percent regression was not representative of the activity of the group. In that case, the day was determined on the first day when the median percent regression was maximal. Regressions were defined as partial (PR) if the tumor volume decreased to 50% of the tumor volume at the start of treatment. Complete regression (CR) was considered to have been achieved when tumor volume was below 14 mm^3 or could not be recorded. • RTV: Relative Tumor Volume. RTV=Vt/V0∘ Vt: Tumor volume at the end of an experimental period (treatment group). V0: tumor volume at the beginning of the experiment • TGI: Tumor Growth Inhibition value. TGI=[1−RTV(experimental group)/RTV(control group)]*100%
# A two-way ANOVA type with factors treatment an day(repeated) was performed on tumor volume changes from baseline. In case of significant treatment day interaction or treatment effects, it was followed by a contrast analysis with Bonferroni-Holm correction for multiplicity to compare all treated groups to the control group at each day from day 8 to 27. Tumor volume changes from baseline were calculated for each animal and each day by subtracting the tumor volume on the day of first treatment from the tumor volume on the specified observation day. As heterogeneity of variances was observed between groups, the compound symmetric(CS) covariance structure with group=option was chosen for the ANOVA type model (SAS Institute Inc. (2008) SAS/STAT 9.2User′s Guide by CaryNC). All statistical analyses were performed using SAS version v9.2 software. A probability less than 5% (p<0.05).
# 6-8 weeks old balb/c mice (18-20 g) were purchased from Beijing Weitong Lihua Experimental Animal Technology Co., Ltd., and each mouse was subcutaneously inoculated with 500,000 A20 cells on the right rear side of the mouse's back. Treatment was initiated when tumors grew to a volume of approximately 62 mm^3. CN401 was orally administered at 150 mg/kg twice a day for 3 weeks.
# CN202 was administered by intraperitoneal injection, 3 times a week at a dose of 5 mg/kg for 3 weeks. The control group was treated with vehicle (0.5% MC and PBS) without active product. Tumor size and body weight were measured three times a week. This animal experiment was carried out in accordance with the requirements of AAALAC, and was approved by Bikai Animal Experiment Center IACUC to conduct this animal experiment.
# Referring to the experimental method of Example 1.1, the difference is that the dosage of CN202 is replaced by 15 mg/kg from 5 mg/kg. […]
# [1] = system: EMT-6 cells (mouse triple-negative breast cancer cells); assay type: in vivo; conditions: Example 4, CN401 150 mg/kg oral, twice a week × 4 week (Table 12)
# Procedure: Tumors were measured with a caliper twice weekly until final sacrifice. […] Solid tumor volumes were estimated from two dimensional tumor measurements and calculated according to the following equation: […]
compound,measurement,setting,value
"Cc1nc(NC(=O)N2CCC[C@H]2C(N)=O)sc1-c1ccnc(C(C)(C)C(F)(F)F)c1 [Alpelisib, (2S)-1-N-[4-methyl-5-[2-(1,1,1-trifluoro-2-methylpropan-2-yl)pyridin-4-yl]-1,3-thiazol-2-yl]pyrrolidine-1,2-dicarboxamide, reference compound]",CR(Number of mice with tumor regression/total amount of mice in each group),"A20 cells; Example 2.2, Alpelisib 50 mg/kg p.o. qd × 3 weeks, day 21",0/7
same,TGI %,"A20 cells; Example 2.2, Alpelisib 50 mg/kg p.o. qd × 3 weeks, day 21 vs vehicle control, p=0.161",37%
"CC[C@H](Nc1ncnc2nc[nH]c12)c1oc2ccccc2c(=O)c1-c1cccc(F)c1 [CN401, (S)-2-(1-(9H-purin-6-ylamino)propylgroup)-3-(3-fluorophenyl)-4H-chromen-4-one]",TGI %,"[1]; 14th day vs vehicle control, p=0.87",3%
same,CR(Number of mice with tumor regression/total amount of mice in each group),[1]; observed up to 80 days,0/8
same,CR(Number of mice with tumor regression/total amount of mice in each group),"A20 cells; Example 1.1, CN401 150 mg/kg p.o. bid × 3 weeks, day 22",2/8
same,TGI %,"A20 cells; Example 1.1, CN401 150 mg/kg p.o. bid × 3 weeks, day 22 vs vehicle control, p=0.034",55%
same,CR(Number of mice with tumor regression/total amount of mice in each group),"A20 cells; Example 1.2, CN401 150 mg/kg p.o. bid × 3 weeks, day 22",2/8
same,TGI %,"A20 cells; Example 1.2, CN401 150 mg/kg p.o. bid × 3 weeks, day 22 vs vehicle control, p=0.034",55%
same,CR(Number of mice with tumor regression/total amount of mice in each group),"A20 cells; Example 2.1, CN401 150 mg/kg p.o. bid × 3 weeks, day 22",0/7
same,TGI %,"A20 cells; Example 2.1, CN401 150 mg/kg p.o. bid × 3 weeks, day 22 vs vehicle control, p=0.028",45%
same,CR(Number of mice with tumor regression/total amount of mice in each group),"A20 cells; Example 3, CN401 150 mg/kg p.o. bid × 3 weeks, day 22",2/8
same,TGI %,"A20 cells; Example 3, CN401 150 mg/kg p.o. bid × 3 weeks, day 22 vs vehicle control, p=0.034",55%
"Anti-PD-L1 Ab: Anti-PD-L1 antibody (Atezolizumab), CAS Number: 1380723-44-3 [reference compound]",CR(Number of mice with tumor regression/total amount of mice in each group),"A20 cells; Example 3, anti-PD-L1 Ab (atezolizumab) 5 mg/kg i.p. biw × 3 weeks, day 22",0/8
same,TGI %,"A20 cells; Example 3, anti-PD-L1 Ab (atezolizumab) 5 mg/kg i.p. biw × 3 weeks, day 22 vs vehicle control, p=0.57",15%
